In ChEMBL document CHEMBL1129913, “Synthesis and cytotoxicity of novel artemisinin analogs” (Bioorg Med Chem Lett, 1997):
In brackets after ≈: the same amount, converted by molar mass.

Key:
[1] = test system: P388; assay: Compound was tested for in vitro cytotoxicity against P388 (murine lymphocytic leukemia) cell line;No activity; format: functional, cell-based, Mus musculus
[2] = test system: SK-OV-3; assay: Compound was tested for in vitro cytotoxicity against SK-OV-3 (human ovary carcinoma) cell line; format: functional, cell-based; details: SK-OV-3, Female gonad
[3] = test system: KB; assay: Compound was tested for in vitro cytotoxicity against KB (human epidermoid carcinoma) cell line; format: functional, cell-based
[4] = test system: Vero; assay: Compound was tested for in vitro cytotoxicity against VERO (African green monkey kidney) cell line; format: functional, cell-based; details: Chlorocebus sabaeus
[5] = test system: SK-OV-3; assay: Compound was tested for in vitro cytotoxicity against SK-OV-3 (human ovary carcinoma) cell line;No activity; format: functional, cell-based, Female gonad
[6] = test system: P388; assay: Compound was tested for in vitro cytotoxicity against P388 (murine lymphocytic leukemia) cell line; format: functional, cell-based; details: Mus musculus
[7] = test system: SK-OV-3; assay: Compound was tested for in vitro cytotoxicity against SK-OV-3 (human ovary carcinoma) cell line; No activity; format: functional, cell-based, Female gonad

C[C@H]1[C@@H](Cc2ccccc2)O[C@@H]2OC3(C)CCC4[C@H](C)CC[C@@H]1[C@]42OO3 (single isomer, unassigned)
IC50 [1]: Not Active
IC50 [2]: 32 µg/mL (≈ 89.3 µM)
IC50 [3]: 13 µg/mL (≈ 36.3 µM)
IC50 [4]: 15 µg/mL (≈ 41.8 µM)

C[C@H]1[C@@H](CCCC(=O)O)O[C@@H]2OC3(C)CCC4[C@H](C)CC[C@@H]1[C@]42OO3 (single isomer, unassigned)
IC50 [1]: Not Active
IC50 [5]: Not Active
IC50 [3]: 32 µg/mL (≈ 90.3 µM)
IC50 [4]: 30 µg/mL (≈ 84.6 µM)

CC[C@H]1O[C@@H]2O[C@@]3(C)CC[C@H]4[C@H](C)CC[C@@H]([C@H]1C)[C@@]24OO3
IC50 [2]: 33 µg/mL (≈ 111 µM)
IC50 [3]: 20 µg/mL (≈ 67.5 µM)
IC50 [4]: 30 µg/mL (≈ 101 µM)
IC50 [6]: 5.5 µg/mL (≈ 18.6 µM)

CCCC[C@H]1O[C@@H]2OC3(C)CC[C@H]4[C@H](C)CC[C@@H]([C@H]1C)[C@@]24OO3 (single isomer, unassigned)
IC50 [2]: 40 µg/mL (≈ 123 µM)
IC50 [3]: 4.5 µg/mL (≈ 13.9 µM)
IC50 [4]: 15 µg/mL (≈ 46.2 µM)
IC50 [6]: 40 µg/mL (≈ 123 µM)

CCN(CC)Cc1ccc(C(=O)O[C@@H]2O[C@@H]3OC4(C)CCC5[C@H](C)CC[C@@H]([C@H]2C)[C@]53OO4)cc1 (single isomer, unassigned)
IC50 [1]: Not Active
IC50 [5]: Not Active
IC50 [3]: 3 µg/mL (≈ 6.33 µM)
IC50 [4]: 15 µg/mL (≈ 31.7 µM)

CCO[C@H]1O[C@@H]2OC3(C)CCC4[C@H](C)CC[C@@H]([C@H]1C)[C@]42OO3 (single isomer, unassigned)
IC50 [1]: Not Active
IC50 [5]: Not Active
IC50 [3]: 15 µg/mL (≈ 48 µM)
IC50 [4]: 28 µg/mL (≈ 89.6 µM)

C[C@@H]1CC[C@H]2[C@@H](C)CO[C@@H]3OC4(C)CC[C@@H]1[C@]32OO4 (single isomer, unassigned) [DEOXOARTEMISININ]
IC50 [1]: Not Active
IC50 [2]: 40 µg/mL (≈ 149 µM)
IC50 [3]: 24 µg/mL (≈ 89.4 µM)
IC50 [4]: 30 µg/mL (≈ 112 µM)

C[C@@H]1CCC2[C@@H](C)CCO[C@@H]3OC4(C)CCC1C23OO4 (single isomer, unassigned)
IC50 [5]: Not Active
IC50 [3]: 22 µg/mL (≈ 77.9 µM)
IC50 [4]: 30 µg/mL (≈ 106 µM)
IC50 [6]: 8 µg/mL (≈ 28.3 µM)

C[C@@H]1CC[C@H]2[C@@H](C)C(=O)O[C@@H]3O[C@@]4(C)CC[C@@H]1[C@]32OO4 [ARTEMISININ]
IC50 [7]: Not Active
IC50 [3]: 16 µg/mL (≈ 56.7 µM)
IC50 [4]: 31 µg/mL (≈ 110 µM)
IC50 [6]: 28 µg/mL (≈ 99.2 µM)
